Reference: patent US20100311678A1, “METHODS AND COMPOSITIONS FOR TREATING CANCER AND MODULATING SIGNAL TRANSDUCTION AND METABOLISM PATHWAYS” (priority 2007, published 2010)
Entries after “also recorded” stand apart in the source; their conditions may differ.

Columns and labels:
[1] = test system: adult rat dissociated dorsal root ganglion (DRG) neurons; experiment: Intracellular delivery of fluorescent doxorubicin into dissociated DRG neurons with the TRPM8 agonist menthol (micrographs); type: cell-based; settings: 2 mM doxorubicin/100 mM L-menthol for 10 minutes vs 2 mM doxorubicin alone for 20 minutes; fluorescence micrographs, FIG. 1
Description: FIG. 1 is a series of micrographs showing intracellular delivery of doxorubicin a fluorescent antiproliferative agent into adult rat dissociated dorsal root ganglion (DRG) neurons. The DRG neurons were treated with vehicle control (FIG. 1A), 2 mM doxorubicin (Adriamycin®) for 20 minutes (FIG. 1B), or 2 mM doxorubicin/100 mM L-menthol for 10 minutes (FIG. 1C). […] The size and number of the fluorescently labeled neurons are similar to those of TRPM8 expressing neurons.
The selective administration of compounds or agents that are cytotoxic to cancer cells is accomplished by the co-administration of menthol, an agonist of the large-pore cation channel receptor TRPM8, along with the antiproliferative agent doxorubicin (Adriamycin®). […] Once doxorubicin is within a cell it enters the nucleus where it binds to DNA.

[2] = test system: adult rat dissociated dorsal root ganglion (DRG) neurons; experiment: Intracellular delivery of fluorescent doxorubicin into dissociated DRG neurons with the TRPV1 agonist capsaicin (micrographs); type: cell-based; settings: 2 mM doxorubicin/1 mM capsaicin for 5 minutes vs 2 mM doxorubicin alone for 20 minutes; fluorescence micrographs, FIG. 2
Description: FIG. 2 is a series of micrographs showing intracellular delivery of doxorubicin into adult rat dissociated dorsal root ganglion (DRG) neurons. The DRG neurons were treated with vehicle control (FIG. 2A), 2 mM doxorubicin (Adriamycin®) for 20 minutes (FIG. 2B), or 2 mM doxorubicin (Adriamycin®)/1 mM capsaicin for 5 minutes (FIG. 2C). […] The size and number of the fluorescently labeled neurons are similar to those of TRPV1 expressing neurons.
The selective administration of compounds or agents that are cytotoxic to cancer cells is accomplished by the co-administration of capsaicin, an agonist of the large-pore cation channel receptor TRPV1, along with doxorubicin (Adriamycin®).

## COc1cccc2c1C(=O)c1c(O)c3c(c(O)c1C2=O)C[C@@](O)(C(=O)CO)C[C@@H]3O[C@H]1C[C@H](N)[C@H](O)[C@H](C)O1 [doxorubicin]
[1]
  intracellular delivery/accumulation of doxorubicin: only entered into cells in the presence of menthol; also recorded: intracellular accumulation of the doxorubicin only into those DRG neurons that express TRPM8
[2]
  intracellular delivery/accumulation of doxorubicin: only entered into cells in the presence of capsaicin; also recorded: intracellular accumulation of the doxorubicin only into those DRG neurons that express TRPV1
